Measured values: patent publication US20260167636A1, “NOVEL COMPOUNDS FOR THE DIAGNOSIS OF TDP-43 PROTEINOPATHIES” (AC IMMUNE SA, priority 2022, published 2026)
Where two headings read alike, the source gives them in different places. Marks after values point to notes of the source that are not given here.

What was measured:
Assay type in all cases: binding
[1] = biological target: T1, TDP-43 aggregates in human FTD sarkosyl-insoluble brain extracts (Homo sapiens, UniProt Q13148); assay: Kd determination with micro-radiobinding (saturation) assay on human FTD sarkosyl insoluble brain extract
T1 construct: A sample of brain tissue (frontal or temporal cortex) was homogenized; from tissue; host or cells: human FTD patient brain, frontal or temporal cortex, sarkosyl-insoluble fraction
T1 sequence (Q13148 whole entry): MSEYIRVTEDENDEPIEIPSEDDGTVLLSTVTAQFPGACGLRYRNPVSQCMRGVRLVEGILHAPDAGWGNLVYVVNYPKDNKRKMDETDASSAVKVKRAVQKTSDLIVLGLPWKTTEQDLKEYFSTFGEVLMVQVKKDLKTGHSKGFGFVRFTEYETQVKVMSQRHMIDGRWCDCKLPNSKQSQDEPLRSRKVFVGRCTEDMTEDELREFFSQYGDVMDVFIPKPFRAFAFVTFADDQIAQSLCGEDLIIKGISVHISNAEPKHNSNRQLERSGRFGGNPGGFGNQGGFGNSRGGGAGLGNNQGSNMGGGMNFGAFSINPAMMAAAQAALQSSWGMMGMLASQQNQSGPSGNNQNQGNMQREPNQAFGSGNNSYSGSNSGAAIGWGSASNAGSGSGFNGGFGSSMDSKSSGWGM
Description: (§1) Human brain extracts were prepared as described in Laferriere et al., 2019, Nature Neurosc. A sample of brain tissue (frontal or temporal cortex) was homogenized at 1:4 (w/v) ratio in the homogenization-solubilization (HS) buffer at 4° C. using tissue homogenizer (Precellys) with CKmix homogenization tubes. The following sequence was used for homogenization: 3 cycles of 30 seconds at 5000 rpm (with 15 seconds pause between each cycle). Homogenized samples were aliquoted and stored at −80° C. in 1.5 mL low protein binding tubes.
(§2) Brain homogenates were thawed on ice and resuspended in HS buffer to obtain a final concentration of 2% sarkosyl, 1 unit/μL Benzonase and 1 mM MgCl2. The samples were then incubated at 37° C. under constant shaking at 600 rpm on a thermomixer for 45 minutes (min). The supernatants were collected in a new tube (sarkosyl-soluble fraction, S1). The pellet was resuspended in 1000 μL of myelin floatation buffer and centrifuged at 20,000 g for 60 min at 4° C. The supernatant was carefully removed to remove all the floating lipids. This step was repeated if all the lipids could not be removed in a single step. The pellet was subsequently washed with Phosphate-Buffered Saline (PBS) and centrifuged for 30 min at 20,000 g at 4° C. The final pellet was resuspended in 200 μL PBS and stored at −80° C. (sarkosyl-insoluble fraction). The samples were analyzed by immunoblotting in denaturing conditions.
2.1 Kd Determination on Human FTD Sarkosyl Insoluble Brain Extract with Micro-Radiobinding Assay of [^3H]-Compound 1, 4, 8, 11, 12
Human FTD sarkosyl-insoluble brain extracts were spotted onto microarray slides. The slides were incubated with [^3H]-Compound 1, [^3H]-Compound 4, [^3H]-Compound 8, [^3H]-Compound 11, or [^3H]-Compound 12 respectively, in a range of concentrations, varying from 1.93 to 300 nM. After incubation, slides were washed and scanned by a real-time autoradiography system (BeaQuant, ai4R). Quantification of the signal was performed by using the Beamage image analysis software (ai4R). Non-specific signal was determined with an excess of non-radiolabelled compound 1, 4, 8, 11 or 12 (2 μM), respectively, and specific binding was calculated by subtracting the non-specific signal from the total signal.
The Kd (Dissociation constant) and R^2 (parameter ranging between 0.0 and 1.0 that quantifies the goodness of fit, and the best curve fit obtained with value of 1.0) were obtained by fitting the specific binding data with non-linear regression analysis, using a one-site specific binding model in GraphPad Prism8.

[2] = biological target: T2, FTD patient brain-derived TDP-43 aggregates (Homo sapiens, UniProt Q13148); assay: Micro-radiobinding competition assay against [3H]-reference ligand; conditions: tritiated reference ligand at 25 nM; for Ki: 0.24 nM to 2 μM; for Human brain derived TDP-43 aggregates Mean % competition at 125 nM: compound at 125 nM; for Human brain derived TDP-43 aggregates Mean % competition at 1 μM: compound at 1 μM
T2 construct: A sample of brain tissue (frontal or temporal cortex) was homogenized; from tissue; host or cells: human FTD patient brain, frontal or temporal cortex, sarkosyl-insoluble fraction
T2 sequence (Q13148 whole entry): as above
Description: as §1, §2
(§3) Human FTD sarkosyl-insoluble brain extracts were spotted onto microarray slides. Three batches of extracts were used. The slides were incubated with a tritiated reference ligand at 25 nM or with tritiated Compound 1 ([^3H]-Compound 1) at 40 nM or 50 nM depending on the batch used. The example compounds (non-radiolabeled) were used at 1 μM and 125 nM (or 1 μM and 100 nM for compound 15). In some cases, the non-radiolabeled example compounds were further assessed for a range of different concentrations, varying from 0.24 nM to 2 μM for determination of the inhibition constant (Ki). After incubation, slides were washed and scanned by a real-time autoradiography system (BeaQuant, ai4R). Quantification of the signal was performed by using the Beamage image analysis software (ai4R). Non-specific signal was determined with an excess of non-radiolabeled reference compound (2 μM) and specific binding was calculated by subtracting the non-specific signal from the total signal. Competition was calculated as percent, where 0% was defined as the specific binding in the presence of vehicle and 100% as the values obtained in the presence of excess of the non-radiolabeled reference compound. Ki values were calculated in GraphPad Prism8 by applying a nonlinear regression curve fit using a one site, specific binding model. Measurements were performed with at least two technical replicates in the two-concentration competition experiment and with one technical replicate in the experiments including a range of concentrations. For compounds tested in more than one experiment, the mean of the replicates or K; values in independent experiments is reported.
Results: Example compounds 1 to 10 were assessed for their potency to compete with the binding of [^3H]-reference ligand to FTD patient brain-derived TDP-43 aggregates. Results of the micro-radiobinding competition assay for the example compounds are shown in Table 2 below as: % competition at 1 μM and 125 nM.

[3] = biological target: T3, Human brain derived TDP-43 aggregates (Homo sapiens, UniProt Q13148); assay: Micro-radiobinding competition assay against [3H]-Compound 1; conditions: for Ki: 0.24 nM to 2 μM; for Ki / Human brain derived TDP-43 aggregates Mean % competition at 1 μM: [3H]-Compound 1 at 50 nM (40 nM for compound 15); for Human brain derived TDP-43 aggregates Mean % competition at 1 μM: compound at 1 μM; for Human brain derived TDP-43 aggregates Mean % competition at 125 nM: compound at 125 nM, [3H]-Compound 1 at 50 nM
T3 construct: A sample of brain tissue (frontal or temporal cortex) was homogenized; from tissue; host or cells: human FTD patient brain, frontal or temporal cortex, sarkosyl-insoluble fraction
T3 sequence (Q13148 whole entry): as above
Description: as §1, §2, §3
Example compounds 11 to 15 were assessed for their potency to compete with the binding of [^3H]-Compound 1 on two different batches of brain extracts. Results of the micro-radiobinding competition assay for the example compounds are shown in Table 3 below as: % competition at 1 μM and 125 nM (with Compound 1 at 50 nM) for compounds 11 to 14, or % competition at 1 μM and 100 nM (with Compound 1 at 40 nM) for compound 15 respectively.

[4] = tritiated compound 1.93 to 300 nM on human FTD sarkosyl-insoluble brain extracts, one-site specific binding fit, read-out: Kd (dissociation constant)
[5] = different batch of FTD sarkosyl-insoluble brain extracts, read-out: Kd (dissociation constant)

SMILES	Ki [2] [nM]	Human brain derived TDP-43 aggregates Mean % competition at 125 nM [2] [%]	Human brain derived TDP-43 aggregates Mean % competition at 1 μM [2] [%]	further results
O=C(Nc1ccc(F)nc1)c1cnc(-c2ccc(N3CC[C@@H](F)C3)nc2)s1 [[^3H]-Compound 1]	–	–	–	Kd ([1]; data from two independent experiments, human FTD sarkosyl-insoluble brain extracts, read-out: average Kd): 53 ± 10 nM; specific binding ([1]; human FTD sarkosyl insoluble brain extracts, result in words): high specific binding; Kd [1, 4]: 52 nM
O=C(Nc1cnc(F)cn1)c1cnc(-c2ccc(N3CC[C@@H](F)C3)nc2)s1 [Compound 5]	223	53	70	–
O=C(Nc1ccc(F)nc1)c1cnc(-c2ccc(N3CC[C@@H](F)C3)cc2)s1 [Compound 10]	71	54	70	–
O=C(Nc1cnc(F)nc1)c1cnc(-c2ccc(N3CC[C@@H](F)C3)nc2)s1 [Compound 6]	89	46	83	–
O=C(Nc1ccc(F)nc1)c1cnc(-c2ccc(N3CC[C@@H](F)C3)nc2)s1 [Compound 1, (R)—N-(6-fluoropyridin-3-yl)-2-(6-(3-fluoropyrrolidin-1-yl)pyridin-3-yl)thiazole-5-carboxamide]	105	63	102	–
O=C(Nc1ccncc1)c1cnc(-c2cnc(N3CC[C@H](F)C3)nc2)s1 [Compound 8, (S)-2-(2-(3-fluoropyrrolidin-1-yl)pyrimidin-5-yl)-N-(pyridin-4-yl)thiazole-5-carboxamide]	75	47	78	–
O=C(Nc1cnsc1)c1cnc(-c2ccc(N3CC[C@@H](F)C3)nc2)s1 [[^3H]-Compound 4, tritiated (R)-2-(6-(3-fluoropyrrolidin-1-yl)pyridin-3-yl)-N-(isothiazol-4-yl)thiazole-5-carboxamide]	–	–	–	Kd [1, 5]: 51 nM
O=C(Nc1cnsc1)c1sc(-c2ccc(N3CC[C@@H](F)C3)nc2)nc1F [Compound 15]	–	–	–	Ki [3]: 10 nM; Mean % competition at 100 nM ([3]; compound at 100 nM, [3H]-Compound 1 at 40 nM): 47* %; Human brain derived TDP-43 aggregates Mean % competition at 1 μM [3]: 92%
O=C(Nc1cnsc1)c1cnc(-c2ccc(N3CC[C@@H](F)C3)nc2)s1 [Compound 4, (R)-2-(6-(3-fluoropyrrolidin-1-yl)pyridin-3-yl)-N-(isothiazol-4-yl)thiazole-5-carboxamide]	116	60	94	–
O=C(Nc1ccncc1)c1cnc(-c2cnc(N3CC[C@H](F)C3)nc2)s1 [[^3H]-Compound 8, tritiated (S)-2-(2-(3-fluoropyrrolidin-1-yl)pyrimidin-5-yl)-N-(pyridin-4-yl)thiazole-5-carboxamide]	–	–	–	Kd [1, 5]: 75 nM
O=C(Nc1cncc(F)c1)c1sc(-c2ccc(N3CC[C@@H](F)C3)nc2)nc1F [Compound 12, (R)-4-fluoro-N-(5-fluoropyridin-3-yl)-2-(6-(3-fluoropyrrolidin-1-yl)pyridin-3-yl)thiazole-5-carboxamide]	–	–	–	Ki [3]: 213 nM; Human brain derived TDP-43 aggregates Mean % competition at 125 nM [3]: 43%; Human brain derived TDP-43 aggregates Mean % competition at 1 μM [3]: 50%
O=C(Nc1cncnc1)c1sc(-c2ccc(N3CC[C@@H](F)C3)nc2)nc1F [Compound 14]	–	–	–	Ki [3]: 153 nM; Human brain derived TDP-43 aggregates Mean % competition at 125 nM [3]: 38%; Human brain derived TDP-43 aggregates Mean % competition at 1 μM [3]: 77%
Nc1cc(NC(=O)c2cnc(-c3ccc(N4CC[C@H](F)C4)nc3)s2)ccc1F [Compound 7]	63	52	80	–
O=C(Nc1cncc(F)c1)c1cnc(-c2ccc(N3CC[C@@H](F)C3)nc2)s1 [Compound 11, (R)—N-(5-fluoropyridin-3-yl)-2-(6-(3-fluoropyrrolidin-1-yl)pyridin-3-yl)thiazole-5-carboxamide]	–	–	–	Ki [3]: 50 nM; Human brain derived TDP-43 aggregates Mean % competition at 125 nM [3]: 65%; Human brain derived TDP-43 aggregates Mean % competition at 1 μM [3]: 80%
O=C(Nc1cncc(F)c1)c1cnc(-c2ccc(N3CC[C@@H](F)C3)nc2)s1 [[^3H]-Compound 11, tritiated (R)—N-(5-fluoropyridin-3-yl)-2-(6-(3-fluoropyrrolidin-1-yl)pyridin-3-yl)thiazole-5-carboxamide]	–	–	–	Kd [1, 4]: 80 nM
O=C(Nc1ccc(F)nc1)c1sc(-c2ccc(N3CC[C@@H](F)C3)nc2)nc1F [Compound 13, (R)-4-fluoro-N-(6-fluoropyridin-3-yl)-2-(6-(3-fluoropyrrolidin-1-yl)pyridin-3-yl)thiazole-5-carboxamide]	–	–	–	Ki [3]: 107 nM; Human brain derived TDP-43 aggregates Mean % competition at 125 nM [3]: 42%; Human brain derived TDP-43 aggregates Mean % competition at 1 μM [3]: 75%
O=C(Nc1ccncc1)c1cnc(-c2cnc(N3CC[C@@H](F)C3)cn2)s1 [Compound 9]	82	60	83	–
O=C(Nc1cncc(F)c1)c1sc(-c2ccc(N3CC[C@@H](F)C3)nc2)nc1F [[^3H]-Compound 12]	–	–	–	Kd [1, 4]: 67 nM
